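Assay format: 96-well plates, 48-hour exposure. Abbreviation: GI50, concentration required for 50% inhibition of growth.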 The source made the active and inactive calls. Rule as the data show it: active = GI50 up to about 1.1 µM and inactive = higher.
What was measured:
Assay in all cases: growth of human tumour cells (NCI), 48 h
[1] = system: MDA-MB-435
[2] = system: MCF7
[3] = system: SK-MEL-5
[4] = system: UACC-257
[5] = system: SF-268
[6] = system: U-251
[7] = system: OVCAR-3
[8] = system: OVCAR-5
[9] = system: RPMI-8226
[10] = system: UACC-62
[11] = system: CCRF-CEM
[12] = system: NCI-H23
[13] = system: CAKI-1
[14] = system: EKVX
[15] = system: DU-145
[16] = system: OVCAR-4
[17] = system: MDA-MB-231
[18] = system: TK-10
[19] = system: A498
[20] = system: Hs-578T
[21] = system: SN12C
[22] = system: A549
[23] = system: UO-31
[24] = system: HL-60
[25] = system: SF-295
[26] = system: K562
[27] = system: Malme-3M
[28] = system: BT-549
[29] = system: 786-0
[30] = system: HOP-92
[31] = system: MDA-N
[32] = system: NCI/ADR-RES
[33] = system: HOP-62
[34] = system: NCI-H460
[35] = system: OVCAR-8
[36] = system: SW-620
[37] = system: SNB-75
[38] = system: SR
[39] = system: SK-MEL-28
[40] = system: HCC 2998
[41] = system: COLO 205
[42] = system: LOX IMVI
[43] = system: PC-3
[44] = system: SK-MEL-2
[45] = system: IGROV-1
[46] = system: NCI-H522
[47] = system: SK-OV-3
[48] = system: RXF 393
[49] = system: HCT-116
[50] = system: T47D
[51] = system: HT-29
[52] = system: SNB-19
[53] = system: KM12
[54] = system: NCI-H226
[55] = system: M14
[56] = system: SF-539
[57] = system: ACHN
[58] = system: MOLT-4
[59] = system: HCT-15

SMILES: COC1(c2cccs2)c2ccccc2C(OC)(c2cccs2)c2ccccc21 (stereo not drawn)
- GI50 [1]: > 100 µM (inactive)
- GI50 [2]: 84.7 µM (inactive)
- GI50 [3]: > 100 µM (inactive)
- GI50 [4]: > 100 µM (inactive)
- GI50 [5]: 48.5 µM (inactive)
- GI50 [6]: 42.4 µM (inactive)
- GI50 [7]: > 100 µM (inactive)
- GI50 [8]: 44.4 µM (inactive)
- GI50 [9]: 63.2 µM (inactive)
- GI50 [10]: 47.3 µM (inactive)
- GI50 [11]: > 100 µM (inactive)
- GI50 [12]: 23.9 µM (inactive)
- GI50 [13]: > 100 µM (inactive)
- GI50 [14]: 36.9 µM (inactive)
- GI50 [15]: 71 µM (inactive)
- GI50 [16]: 33.7 µM (inactive)
- GI50 [17]: 26.4 µM (inactive)
- GI50 [18]: 36.8 µM (inactive)
- GI50 [19]: 28.5 µM (inactive)
- GI50 [20]: 0.518 µM (active)
- GI50 [21]: > 100 µM (inactive)
- GI50 [22]: 94.8 µM (inactive)
- GI50 [23]: > 100 µM (inactive)
- GI50 [24]: > 100 µM (inactive)
- GI50 [25]: 28.3 µM (inactive)
- GI50 [26]: 36 µM (inactive)
- GI50 [27]: > 100 µM (inactive)
- GI50 [28]: 78.5 µM (inactive)
- GI50 [29]: 35.3 µM (inactive)
- GI50 [30]: 54.2 µM (inactive)
- GI50 [31]: > 100 µM (inactive)
- GI50 [32]: 92.7 µM (inactive)
- GI50 [33]: 42.3 µM (inactive)
- GI50 [34]: > 100 µM (inactive)
- GI50 [35]: > 100 µM (inactive)
- GI50 [36]: > 100 µM (inactive)
- GI50 [37]: 59.8 µM (inactive)
- GI50 [38]: 40.7 µM (inactive)
- GI50 [39]: > 100 µM (inactive)
- GI50 [40]: 49.3 µM (inactive)
- GI50 [41]: 85.5 µM (inactive)
- GI50 [42]: > 100 µM (inactive)
- GI50 [43]: 42.9 µM (inactive)
- GI50 [44]: 50.5 µM (inactive)
- GI50 [45]: > 100 µM (inactive)
- GI50 [46]: 97.9 µM (inactive)
- GI50 [47]: 86.1 µM (inactive)
- GI50 [48]: 52.4 µM (inactive)
- GI50 [49]: 17.4 µM (inactive)
- GI50 [50]: 85.7 µM (inactive)
- GI50 [51]: 50.8 µM (inactive)
- GI50 [52]: 42.8 µM (inactive)
- GI50 [53]: > 100 µM (inactive)
- GI50 [54]: > 100 µM (inactive)
- GI50 [55]: 81.1 µM (inactive)
- GI50 [56]: 36.5 µM (inactive)
- GI50 [57]: > 100 µM (inactive)
- GI50 [58]: 16.7 µM (inactive)
- GI50 [59]: > 100 µM

SMILES: CCOC(=O)C1(Cc2ccccc2)CCN(C(=O)c2ccccc2)C2C1C2(Cl)Cl (stereo not drawn)
- GI50 [1]: 21.1 µM (inactive)
- GI50 [2]: 25.4 µM (inactive)
- GI50 [3]: 15.9 µM (inactive)
- GI50 [4]: 15.2 µM (inactive)
- GI50 [5]: 29 µM (inactive)
- GI50 [6]: 15.9 µM (inactive)
- GI50 [7]: 18.3 µM (inactive)
- GI50 [8]: 29.9 µM (inactive)
- GI50 [9]: 13.2 µM (inactive)
- GI50 [10]: 12 µM (inactive)
- GI50 [11]: 20 µM (inactive)
- GI50 [12]: 23.5 µM (inactive)
- GI50 [13]: 24.3 µM (inactive)
- GI50 [14]: 19.3 µM (inactive)
- GI50 [15]: 33 µM (inactive)
- GI50 [16]: 26 µM (inactive)
- GI50 [17]: 17.1 µM (inactive)
- GI50 [18]: 24.4 µM (inactive)
- GI50 [19]: 18.8 µM (inactive)
- GI50 [20]: 26.7 µM (inactive)
- GI50 [21]: 16.4 µM (inactive)
- GI50 [22]: 30.1 µM (inactive)
- GI50 [23]: 28.4 µM (inactive)
- GI50 [24]: 12.2 µM (inactive)
- GI50 [25]: 23.3 µM (inactive)
- GI50 [26]: 27 µM (inactive)
- GI50 [27]: 21.4 µM (inactive)
- GI50 [28]: 25.2 µM (inactive)
- GI50 [29]: 20.1 µM (inactive)
- GI50 [30]: 26.6 µM (inactive)
- GI50 [31]: 17.9 µM (inactive)
- GI50 [32]: 21.3 µM (inactive)
- GI50 [33]: 27.6 µM (inactive)
- GI50 [34]: 16.8 µM (inactive)
- GI50 [35]: 28.3 µM (inactive)
- GI50 [36]: 25.7 µM (inactive)
- GI50 [37]: 23.1 µM (inactive)
- GI50 [38]: 23.6 µM (inactive)
- GI50 [39]: 21.1 µM (inactive)
- GI50 [40]: 14.5 µM (inactive)
- GI50 [41]: 18.3 µM (inactive)
- GI50 [42]: 18.4 µM (inactive)
- GI50 [43]: 16.7 µM (inactive)
- GI50 [44]: 15.6 µM (inactive)
- GI50 [45]: 31.2 µM (inactive)
- GI50 [46]: 18.1 µM (inactive)
- GI50 [47]: 28.6 µM (inactive)
- GI50 [48]: 16 µM (inactive)
- GI50 [49]: 15 µM (inactive)
- GI50 [50]: 14.1 µM (inactive)
- GI50 [51]: 16.6 µM (inactive)
- GI50 [52]: 36.1 µM (inactive)
- GI50 [53]: 29.9 µM (inactive)
- GI50 [54]: 23.6 µM (inactive)
- GI50 [55]: 18.3 µM (inactive)
- GI50 [56]: 18 µM (inactive)
- GI50 [57]: 21.6 µM (inactive)
- GI50 [58]: 20 µM (inactive)
- GI50 [59]: 27.8 µM

Reference: ChEMBL document CHEMBL1201862, “PubChem BioAssay data set” (2004)
